Test results: US20250026743A1, “HETEROARYL-LINKED ANALOGS AS MGLU5 NEGATIVE ALLOSTERIC MODULATORS AND METHODS OF MAKING AND USING THE SAME” (Vanderbilt University, priority 2021, published 2025)
Like-named read-outs stand apart in the source and are kept apart here.

Target: T1, hmGlu5 (Homo sapiens, UniProt P41594)
T1 construct: expressed in transfected cells; host or cells: HEK 293A
Experiment: mGlu5 Ca2+ flux assay in HEK 293A cells (negative allosteric modulation of glutamate EC80 response)
Format: cell-based
Settings: for remaining activity at 30 µM: HEK293-A, read-out: hmGlu5 NAM Emin (%); for IC50: HEK 293A cells, Ca2+ flux, glutamate EC80, >10,000 = decrease without plateau, read-out: hmGlu5 NAM IC50
Experimental: HEK 293A cells stably expressing either rat or human mGlu5 were plated in black-walled, clear-bottomed, poly-D-lysine coated 384-well plates in 20 μL of assay medium (DMEM containing 10% dialyzed FBS, 20 mM HEPES, 100 units/mL penicillin/streptomycin plus 250 ng/mL Fungizone, and 1 mM sodium pyruvate) at a density of 20K cells/well. The cells were grown overnight at 37° C. in the presence of 5% CO2. The next day, medium was removed and the cells incubated with 20 μL of 2.3 μM Fluo-4, AM prepared as a 2.3 mM stock in DMSO and mixed in a 1:1 ratio with 10% (w/v) pluronic acid F-127 and diluted in assay buffer (Hank's balanced salt solution, 20 mM HEPES, and 2.5 mM probenecid) for 45 minutes at 37° C. Dye was removed, 20 μL of assay buffer was added, and the plate was incubated for 5 minutes at room temperature.
Ca^2+ flux was measured using the Functional Drug Screening System (FDSS7000, Hamamatsu, Japan). After establishment of a fluorescence baseline for about 3 seconds, the compounds of the present invention were added to the cells, and the response in cells was measured. 2.3 minutes later an EC20 concentration of the mGlu5 receptor agonist glutamate was added to the cells, and the response of the cells was measured for 1.9 minutes; an EC80 concentration of agonist was added and readings taken for an additional 1.7 minutes. All test compounds were dissolved and diluted to a concentration of 10 mM in 100% DMSO. Compounds were then serially diluted 1:3 in DMSO into 10 point concentration response curves, transferred to daughter plates, and further diluted into assay buffer to a 2× stock. Calcium fluorescence measures were recorded as fold over basal fluorescence; raw data was then normalized to the maximal response to glutamate. Antagonism of the agonist response of the mGlu5 receptor in the present invention was observed as a decrease in response to nearly maximal concentrations of glutamate in the presence of compound compared to the response to glutamate in the absence of compound.
The raw data file containing all time points was used as the data source in the analysis template. This was saved by the FDSS as a tab-delimited text file. Data were normalized using a static ratio function (F/F0) for each measurement of the total 360 values per well divided by each well's initial value. Data were then reduced to peak amplitudes (Max−Initial Min) using a time range that starts approximately 3 seconds prior to the glutamate EC20/EC80 addition and continues for approximately 90-120 seconds. This is sufficient time to capture the peak amplitude of the cellular calcium response. Individual amplitudes were expressed as % EMax by multiplying each amplitude by 100 and then dividing the product by the mean of the amplitudes derived from the glutamate ECMax-treated wells. IC50 values for test compounds were generated by fitting the normalized values versus the log of the test compound concentration (in mol/L) using a 4 parameter logistic equation where none of the parameters were fixed. Each of the three values collected at each concentration of test compound were weighted evenly.
For NAMs with a CRC that plateaus above 10% Glu Max, the IC50 values are reported, the compound is designated a “partial NAM” and the % Glu Max is reported. […] Compounds without measurable activity are designated as “>30,000 nM” since the top concentration of compound tested in the assay is 30 μM. […]

T1 sequence (P41594 21-1212): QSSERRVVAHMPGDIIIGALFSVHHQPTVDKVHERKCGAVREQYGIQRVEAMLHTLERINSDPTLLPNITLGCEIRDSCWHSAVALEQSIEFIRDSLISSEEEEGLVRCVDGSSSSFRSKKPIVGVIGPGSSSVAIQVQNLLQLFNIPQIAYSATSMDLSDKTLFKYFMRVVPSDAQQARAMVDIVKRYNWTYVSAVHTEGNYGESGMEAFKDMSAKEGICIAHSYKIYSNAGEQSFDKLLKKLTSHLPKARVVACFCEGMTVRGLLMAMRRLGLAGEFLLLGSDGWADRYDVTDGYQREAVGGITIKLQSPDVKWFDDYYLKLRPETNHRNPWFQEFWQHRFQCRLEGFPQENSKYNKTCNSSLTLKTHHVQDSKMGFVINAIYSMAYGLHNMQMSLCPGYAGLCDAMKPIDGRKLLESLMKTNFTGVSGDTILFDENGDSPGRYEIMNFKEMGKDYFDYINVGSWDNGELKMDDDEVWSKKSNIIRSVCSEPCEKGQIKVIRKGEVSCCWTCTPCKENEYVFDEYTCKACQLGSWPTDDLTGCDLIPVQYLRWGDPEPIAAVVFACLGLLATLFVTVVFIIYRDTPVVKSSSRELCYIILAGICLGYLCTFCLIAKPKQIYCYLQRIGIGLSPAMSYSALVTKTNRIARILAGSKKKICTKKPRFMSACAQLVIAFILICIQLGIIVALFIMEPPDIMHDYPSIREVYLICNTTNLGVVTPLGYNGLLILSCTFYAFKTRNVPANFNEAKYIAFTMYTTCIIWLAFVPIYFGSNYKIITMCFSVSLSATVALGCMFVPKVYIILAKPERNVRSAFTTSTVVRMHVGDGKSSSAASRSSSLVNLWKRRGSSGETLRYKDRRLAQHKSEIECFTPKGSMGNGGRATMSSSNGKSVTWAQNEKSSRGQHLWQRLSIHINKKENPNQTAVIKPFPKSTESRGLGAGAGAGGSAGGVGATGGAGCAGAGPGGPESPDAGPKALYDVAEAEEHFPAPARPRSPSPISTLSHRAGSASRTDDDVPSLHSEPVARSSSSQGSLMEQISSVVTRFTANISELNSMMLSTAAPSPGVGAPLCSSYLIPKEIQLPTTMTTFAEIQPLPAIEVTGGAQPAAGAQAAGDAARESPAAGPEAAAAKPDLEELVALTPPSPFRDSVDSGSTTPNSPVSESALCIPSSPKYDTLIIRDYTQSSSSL

| SMILES | remaining activity at 30 µM (% Glu max at 30 μM) [%] | IC50 [nM] | remaining activity at 30 µM [%] |
| --- | --- | --- | --- |
| [2H]C([2H])([2H])c1cc(-c2cncc(F)c2)cc(-c2nnc(-c3ccc(F)cn3)o2)n1 [Compound 85, 2-(5-fluoro-6′-(methyl-d3)-[3,4′-bipyridin]-2′-yl)-5-(5-fluoropyridin-2-yl)-1,3,4-oxadiazole] | 1 | 450 |  |
| Cc1nc(-c2nnc(-c3ccc(F)cn3)o2)cc(-c2cnn(C(F)F)c2)c1F [Compound 74, 2-(4-(1-(difluoromethyl)-1H-pyrazol-4-yl)-5-fluoro-6-methylpyridin-2-yl)-5-(5-fluoropyridin-2-yl)-1,3,4-oxadiazole] | 2 | 148 |  |
| Cc1nc(-c2nnc(-c3ccc(F)cn3)o2)cc(-c2cncc(F)c2)c1F [Compound 43, 2-(5,5′-difluoro-6′-methyl-[3,4′-bipyridin]-2′-yl)-5-(5-fluoropyridin-2-yl)-1,3,4-oxadiazole] |  | 179 | 2 |
| COc1c(-c2cncc(F)c2)cc(-c2n[nH]c(-c3cccc(F)c3)n2)nc1C [Compound 101, 5-fluoro-6′-(5-(3-fluorophenyl)-1H-1,2,4-triazol-3-yl)-3′-methoxy-2′-methyl-3,4′-bipyridine] | 11 | 114 |  |
| Cc1cc(CC2CCOCC2)cc(-c2noc(-c3ccc(F)cn3)n2)n1 [Compound 71, 5-(5-fluoropyridin-2-yl)-3-(6-methyl-4-((tetrahydro-2H-pyran-4-yl)methyl)pyridin-2-yl)-1,2,4-oxadiazole] | 45 | > 10000 |  |
| COc1cncc(-c2cc(-c3nnc(-c4ccc(F)cn4)o3)nc(C)c2F)c1 [Compound 107, 2-(5′-fluoro-5-methoxy-6′-methyl-[3,4′-bipyridin]-2′-yl)-5-(5-fluoropyridin-2-yl)-1,3,4-oxadiazole] | 2 | 336 |  |
| Cc1csc(-c2nc(-c3cc(-c4cnc(C)s4)c(F)c(C)n3)no2)n1 [Compound 18, 3-(5-fluoro-6-methyl-4-(2-methylthiazol-5-yl)pyridin-2-yl)-5-(4-methylthiazol-2-yl)-1,2,4-oxadiazole] | 13 | 1130 |  |
| COc1cc(-c2cc(-c3nnc(-c4ccc(F)cn4)o3)nc(C)c2F)ccn1 [Compound 108, 2-(5-fluoro-2′-methoxy-6-methyl-[4,4′-bipyridin]-2-yl)-5-(5-fluoropyridin-2-yl)-1,3,4-oxadiazole] | 1 | 94 |  |
| Cc1nc(-c2noc(-c3ccc(F)cn3)n2)cc(-c2cc(F)cc(F)c2)c1F [Compound 67, 3-(4-(3,5-difluorophenyl)-5-fluoro-6-methylpyridin-2-yl)-5-(5-fluoropyridin-2-yl)-1,2,4-oxadiazole] | 3 | 161 |  |
| COc1c(-c2cncc(F)c2)cc(-c2noc(-c3ccc(F)cn3)n2)nc1C [Compound 11, 3-(5-fluoro-5′-methoxy-6′-methyl-[3,4′-bipyridin]-2′-yl)-5-(5-fluoropyridin-2-yl)-1,2,4-oxadiazole] | 2 | 452 |  |
| Cc1nc(-c2n[nH]c(-c3ccc(F)cn3)n2)cc(-c2cncc(F)c2)c1F [Compound 96, 3′,5-difluoro-6′-(5-(5-fluoropyridin-2-yl)-1H-1,2,4-triazol-3-yl)-2′-methyl-3,4′-bipyridine] | 2 | 64 |  |
| Cc1csc(-c2noc(-c3cc(-c4cncc(F)c4)c(F)c(C)n3)n2)n1 [Compound 104, 5-(5,5′-difluoro-6′-methyl-[3,4′-bipyridin]-2′-yl)-3-(4-methylthiazol-2-yl)-1,2,4-oxadiazole] | 1 | 122 |  |
| Cc1nc(-c2nnc(-c3ccc(F)cn3)o2)cc(-c2cnsc2)c1F [Compound 110, 2-(5-fluoro-4-(isothiazol-4-yl)-6-methylpyridin-2-yl)-5-(5-fluoropyridin-2-yl)-1,3,4-oxadiazole] | 2 | 185 |  |
| COc1c(-c2cncc(F)c2)cc(-c2n[nH]c(-c3ccccc3F)n2)nc1C [Compound 100, 5-fluoro-6′-(5-(2-fluorophenyl)-1H-1,2,4-triazol-3-yl)-3′-methoxy-2′-methyl-3,4′-bipyridine] | 2 | 300 |  |

Now from value to compound, other results behind:

| remaining activity at 30 µM (% Glu max at 30 μM) [%] | IC50 [nM] | SMILES | remaining activity at 30 µM [%] |
| --- | --- | --- | --- |
| 5 | 1290 | Cc1nc(-c2noc(-c3ccc(F)cn3)n2)cc(-c2cncc(C(C)(C)O)c2)c1F [Compound 62, 2-(3′-fluoro-6′-(5-(5-fluoropyridin-2-yl)-1,2,4-oxadiazol-3-yl)-2′-methyl-[3,4′-bipyridin]-5-yl)propan-2-ol] |  |
| 12 | 3380 | COc1ccnc(-c2nc(-c3cc(-c4cnccc4C)c(F)c(C)n3)no2)c1 [Compound 25, 3-(5′-fluoro-4,6′-dimethyl-[3,4′-bipyridin]-2′-yl)-5-(4-methoxypyridin-2-yl)-1,2,4-oxadiazole] |  |
| 2 | 59 | Cc1nc(-c2noc(-c3ccc(F)cn3)n2)cc(-c2cncc(F)c2)c1F [Compound 6, 3-(5,5′-difluoro-6′-methyl-[3,4′-bipyridin]-2′-yl)-5-(5-fluoropyridin-2-yl)-1,2,4-oxadiazole] |  |
| 2 | 85 | Cc1ccncc1-c1cc(-c2noc(-c3cccc(C#N)c3)n2)nc(C)c1F [Compound 24, 3-(3-(5′-fluoro-4,6′-dimethyl-[3,4′-bipyridin]-2′-yl)-1,2,4-oxadiazol-5-yl)benzonitrile] |  |
| 4 | 493 | Cc1ccncc1-c1cc(-c2noc(-c3cccc(Cl)n3)n2)nc(C)c1F [Compound 21, 5-(6-chloropyridin-2-yl)-3-(5′-fluoro-4,6′-dimethyl-[3,4′-bipyridin]-2′-yl)-1,2,4-oxadiazole] |  |
| 3 | 81 | Cc1nc(-c2noc(-c3ccc(F)cc3)n2)cc(-c2cncc(F)c2)c1F [Compound 48, 3-(5,5′-difluoro-6′-methyl-[3,4′-bipyridin]-2′-yl)-5-(4-fluorophenyl)-1,2,4-oxadiazole] |  |
| 4 | 187 | Cc1ccncc1-c1cc(-c2noc(-c3ccc(F)cn3)n2)nc(C(F)F)c1 [Compound 60, 3-(6′-(difluoromethyl)-4-methyl-[3,4′-bipyridin]-2′-yl)-5-(5-fluoropyridin-2-yl)-1,2,4-oxadiazole] |  |
| 2 | 221 | Cc1ccncc1-c1cc(-c2noc(-c3ccncc3)n2)nc(C)c1F [Compound 93, 3-(5′-fluoro-4,6′-dimethyl-[3,4′-bipyridin]-2′-yl)-5-(pyridin-4-yl)-1,2,4-oxadiazole] |  |
| 37 | > 10000 | Cc1ccncc1-c1cc(-c2noc(-c3cnccn3)n2)nc(C)c1F [Compound 94, 3-(5′-fluoro-4,6′-dimethyl-[3,4′-bipyridin]-2′-yl)-5-(pyrazin-2-yl)-1,2,4-oxadiazole] |  |
| 3 | 192 | Cc1ccncc1-c1cc(-c2noc(-c3ccc(F)cn3)n2)ncc1F [Compound 1, 3-(5′-fluoro-4-methyl-[3,4′-bipyridin]-2′-yl)-5-(5-fluoropyridin-2-yl)-1,2,4-oxadiazole] |  |
| 2 | 69 | Cc1cccc(-c2nc(-c3cc(-c4cnccc4C)c(F)c(C)n3)no2)c1 [Compound 28, 3-(5′-fluoro-4,6′-dimethyl-[3,4′-bipyridin]-2′-yl)-5-(m-tolyl)-1,2,4-oxadiazole] |  |
